Measurements published in patent publication US7642280B2, “Inhibitors of acyl glucosaminyl inositol amidase and methods of use” (The Regents of the University of California, priority 2001, dated 2010).
Where two headings read alike, the source gives them in different places.

What was measured:
[1] = target: Mycobacterium smegmatis mycothiol-S-conjugate amidase (MCA) (Mycolicibacterium smegmatis, UniProt A0R2W9); test: Fluorescence-based HPLC IC50 assay, wild type M. smegmatis MCA with natural MSmB; assay type: biochemical
Chain of Mycobacterium smegmatis mycothiol-S-conjugate amidase (MCA) (A0R2W9 whole entry): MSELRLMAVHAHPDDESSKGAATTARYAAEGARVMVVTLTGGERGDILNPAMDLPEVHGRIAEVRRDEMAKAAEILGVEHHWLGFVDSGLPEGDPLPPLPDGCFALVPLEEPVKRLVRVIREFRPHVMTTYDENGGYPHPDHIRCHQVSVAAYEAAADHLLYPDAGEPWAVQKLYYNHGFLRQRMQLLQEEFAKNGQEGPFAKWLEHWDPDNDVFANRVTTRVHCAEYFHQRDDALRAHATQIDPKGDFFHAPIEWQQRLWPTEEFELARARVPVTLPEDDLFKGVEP

M. tuberculosis MCA = M. tuberculosis MCA (Mycobacterium tuberculosis, UniProt P9WJN1); test: biochemical
Chain of M. tuberculosis MCA (P9WJN1 whole entry): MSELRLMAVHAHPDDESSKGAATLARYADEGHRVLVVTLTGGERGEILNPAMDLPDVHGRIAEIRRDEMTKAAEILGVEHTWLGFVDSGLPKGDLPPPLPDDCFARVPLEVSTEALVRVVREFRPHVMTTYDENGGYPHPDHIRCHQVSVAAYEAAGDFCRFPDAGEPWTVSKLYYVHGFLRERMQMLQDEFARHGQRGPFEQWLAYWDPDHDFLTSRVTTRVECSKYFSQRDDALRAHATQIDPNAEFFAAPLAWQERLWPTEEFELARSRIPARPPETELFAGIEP

[2] = target: mycothiol S-conjugate amidase (MCA) (Mycolicibacterium smegmatis, UniProt A0R2W9); test: Fluorescence-detected HPLC assay of MCA cleavage of MSmB (50 μM MSmB as substrate), Examples 1 and 3; assay type: biochemical
Chain of mycothiol S-conjugate amidase (MCA) (A0R2W9 whole entry): as the sequence (A0R2W9 whole entry) above

[3] = wild type M. smegmatis MCA approx. 20 nM, 30 μM natural MSmB, 20 min, 31° C., read-out: IC50 M. smeg
[4] = recombinant M. tuberculosis MCA approx. 20 nM, 30 μM synthetic MSmB, 20 min, 31° C., read-out: IC50 M. tb
[5] = 50 μM MSmB as substrate, read-out: concentration that inhibited mycothiol S-conjugate amidase by 50%

## COc1cc(O)c2c(c1)C(=O)c1cc(C)cc(O)c1C2=O [Compound 14, Physcion]
[1]; [3]
  IC50: 50 µM

## COC1=C(Br)[C@@H](O)[C@]2(C=C1Br)CC(C(=O)NCCc1[nH]c(N)nc1-c1cc(O)c3ncc(O)c(O)c3c1O)=NO2 [Compound 1]
[1]
  IC50: 2 µM
M. tuberculosis MCA; [4]
  IC50: 3 µM
[2]
  IC50: 2 µM

## CS[C@]1(CO)C(=O)N2[C@H]3C(=CC=C[C@@H]3O)C[C@@]2(SC)C(=O)N1C [Compound 13, S,S-dimethyl gliotoxin]
[1]; [3]
  IC50: 280 µM

## halisulfate 1 [Compound 11]
[1]; [3]
  IC50: 40 µM

## CN1C(=O)[C@]23CC4=CC=C[C@H](O)[C@H]4N2C(=O)[C@@]1(CO)SS3 [Compound 12, Gliotoxin]
[1]; [3]
  IC50: 30 µM
M. tuberculosis MCA
  IC50: 30 µM

## COC1=C(Br)[C@@H](O)[C@]2(C=C1Br)CC(C(=O)NCCc1cnc(N)[nH]1)=NO2 [Compound 2, Pseudoceratine]
[1]; [3]
  IC50: 100 µM
M. tuberculosis MCA; [4]
  IC50: 100 µM
[2]; [5]
  IC50: 100 µM

## Suvanine [Compound 10]
[1]; [3]
  IC50: 60 µM

## COC1=C(Br)C[C@]2(OC=C1Br)ON=C(C(=O)NCCCOc1c(Br)cc(C(O)CN)cc1Br)[C@@H]2O (stereo partly shown) [Compound 4, psammaplysin B]
[1]; [3]
  IC50: 20 µM
M. tuberculosis MCA; [4]
  IC50: 30 µM
[2]; [5]
  IC50: 3 µM

## oceanapiside aglycon [Compound 8]
M. tuberculosis MCA; [4]
  IC50: 20 µM

## psammaplysin A [Compound 3]
[1]; [3]
  IC50: 30 µM
M. tuberculosis MCA; [4]
  IC50: 30 µM

## O=c1c(O)c[nH]c2c(O)ccc(O)c12 [uranidine, reference compound]
[2]; 50 μM MSmB as substrate, absence of cleavage product AcCys-bimane
  inhibitory activity against MCA (in words): ineffective

## Oceanapiside [Compound 7]
[1]; [3]
  IC50: 0.5 µM
M. tuberculosis MCA; [4]
  IC50: 10 µM
[2]; 50 μM MSmB as substrate, read-out: IC50 amidase inhibition (Example 3, FIG. 6)
  IC50: 5 µM
